Experiments:
[1] = for mass density: 101.33 kPa, Liquid, Pycnometric method
[2] = Molar enthalpy of transition or fusion; conditions: Crystal; Adiabatic calorimetry
[3] = molar heat capacity at constant pressure; conditions: 101.33 kPa, Liquid, Vacuum adiabatic calorimetry

CCC[n+]1ccn(C)c1.[Br-] [1-methyl-3-propylimidazolium bromide]
Conditions	Triple point temperature [K]	mass density [kg/m3]	molar heat capacity at constant pressure [J/K/mol]
[1], 302.71 K	–	1355.9	–
[1], 307.7 K	–	1352.4	–
[1], 312.7 K	–	1348.9	–
[1], 317.71 K	–	1345.4	–
[1], 322.7 K	–	1341.9	–
[1], 327.7 K	–	1338.5	–
[1], 332.7 K	–	1335	–
[1], 337.69 K	–	1331.6	–
[1], 342.68 K	–	1328.2	–
[1], 347.68 K	–	1324.9	–
[1], 352.67 K	–	1321.6	–
[1], 357.67 K	–	1318.3	–
[1], Crystal	309.56	–	–
[3], 222.57 K	–	–	260
[3], 224.61 K	–	–	260.5
[3], 226.66 K	–	–	260.8
[3], 228.71 K	–	–	261.3
[3], 230.76 K	–	–	261.7
[3], 232.81 K	–	–	262.1
[3], 234.85 K	–	–	262.7
[3], 236.9 K	–	–	263.1
[3], 238.95 K	–	–	263.5
[3], 241 K	–	–	264
[3], 243.05 K	–	–	264.4
[3], 245.1 K	–	–	264.9
[3], 247.15 K	–	–	265.4
[3], 249.2 K	–	–	266
[3], 251.25 K	–	–	266.5
[3], 253.31 K	–	–	267.1
[3], 255.36 K	–	–	267.6
[3], 257.41 K	–	–	268.2
[3], 259.46 K	–	–	268.8
[3], 261.51 K	–	–	269.5
[3], 263.56 K	–	–	270
[3], 265.62 K	–	–	270.6
[3], 267.67 K	–	–	271.2
[3], 269.72 K	–	–	271.8
[3], 271.77 K	–	–	272.5
[3], 273.82 K	–	–	273.2
[3], 275.87 K	–	–	273.8
[3], 277.92 K	–	–	274.5
[3], 279.98 K	–	–	275.1
[3], 282.03 K	–	–	275.8
[3], 284.08 K	–	–	276.4
[3], 286.13 K	–	–	277
[3], 288.18 K	–	–	277.8
[3], 290.23 K	–	–	278.4
[3], 292.28 K	–	–	279.1
[3], 294.33 K	–	–	279.7
[3], 296.39 K	–	–	280.4
[3], 298.44 K	–	–	281
[3], 300.49 K	–	–	281.7
[3], 302.54 K	–	–	282.4
[3], 304.59 K	–	–	283
[3], 306.64 K	–	–	283.7
[3], 308.7 K	–	–	284.4
[3], 310.75 K	–	–	285
[3], 312.8 K	–	–	285.7
[3], 314.85 K	–	–	286.4
[3], 316.91 K	–	–	287.1
[3], 318.96 K	–	–	287.7
[3], 321.01 K	–	–	288.5
[3], 323.07 K	–	–	289.2
[3], 325.12 K	–	–	289.8
[3], 327.18 K	–	–	290.6
[3], 329.23 K	–	–	291.4
[3], 331.28 K	–	–	292.1
[3], 333.34 K	–	–	292.9
[3], 335.39 K	–	–	293.6
[3], 337.45 K	–	–	294.3
[3], 339.5 K	–	–	295.1
[3], 341.56 K	–	–	295.9
[3], 343.61 K	–	–	296.7
[3], 345.67 K	–	–	297.3
[3], 347.73 K	–	–	298.2
[3], 349.78 K	–	–	299.2
[3], 351.84 K	–	–	299.9
[3], 353.9 K	–	–	300.7
[3], 355.95 K	–	–	301.4
[3], 358.01 K	–	–	302.2
[3], 360.06 K	–	–	303.1
[3], 362.12 K	–	–	303.8
[3], 364.17 K	–	–	304.6
[3], 366.23 K	–	–	305.4
[3], 368.28 K	–	–	306.3

Conditions	Molar enthalpy of transition or fusion [kcal/mol]
[2]	4.589

CCOS(=O)(=O)[O-].CCn1cc[n+](C)c1 [1-ethyl-3-methylimidazolium ethyl sulfate]
[3]
Conditions	molar heat capacity at constant pressure [J/K/mol]
191.13 K	354.4
193.05 K	354.6
194.98 K	354.9
196.91 K	355.1
198.84 K	355.3
200.77 K	355.7
202.71 K	355.9
204.64 K	356.3
206.57 K	356.6
208.5 K	356.9
210.44 K	357.2
212.37 K	357.5
214.3 K	357.9
216.24 K	358.3
218.18 K	358.7
220.11 K	359.2
222.05 K	359.6
223.98 K	360.1
225.92 K	360.4
227.86 K	360.9
229.8 K	361.4
231.74 K	362.1
233.68 K	362.5
235.62 K	363
237.56 K	363.5
239.5 K	364
241.43 K	364.6
243.37 K	365.1
245.32 K	365.6
247.26 K	366.2
249.2 K	366.8
251.14 K	367.4
253.08 K	367.9
255.02 K	368.5
256.96 K	369.1
258.9 K	369.9
260.85 K	370.3
262.79 K	371
264.73 K	371.7
266.67 K	372.1
268.62 K	372.7
270.55 K	373.4
272.5 K	374.1
274.44 K	374.8
276.38 K	375.1
278.32 K	375.6
280.25 K	376.5
282.2 K	377
284.14 K	377.6
286.08 K	378.2
288.03 K	378.7
289.97 K	379.4
291.91 K	380.2
293.85 K	381
295.79 K	381.9
297.74 K	382.6
299.68 K	383.5
301.62 K	384.2
303.56 K	385
305.51 K	385.9
307.45 K	386.7
309.39 K	387.5
311.33 K	388.6
313.28 K	389.5
315.22 K	390.4
317.16 K	391.4
319.11 K	392.2
321.05 K	393.2
322.99 K	394
324.93 K	395
326.88 K	395.9
328.82 K	396.9
330.77 K	397.7
332.71 K	398.5
334.66 K	399.7
336.6 K	400.5
338.54 K	401.4
340.49 K	402.7
342.43 K	403.5
344.38 K	404.4
346.32 K	405.7
348.27 K	406.7
350.21 K	407.8
352.15 K	408.8
354.1 K	409.7
356.04 K	410.8
357.98 K	411.9
359.92 K	412.8
361.86 K	413.9
363.8 K	414.9
365.75 K	415.9
367.69 K	416.8
